These results are taken from ChEMBL document CHEMBL1154074, “3D-QSAR with the aid of pharmacophore search and docking-based alignments for farnesyltransferase inhibitors” (Eur J Med Chem, 2009).

The assay can be described thus: Inhibition of FTase.
`COc1cccc(-c2cc(C#N)ccc2COCc2cncn2Cc2ccc(Cl)cc2)c1`: the pIC50 (in general, the IC50 on a negative log10 scale, so that one unit is a factor of ten) was 8.66.

For the compound `N#Cc1ccc(COCc2cncn2Cc2ccc(C#N)cc2-c2cccc3ccccc23)c(-c2ccc3c(c2)OCO3)c1`, the pIC50 turned out to be 8.17.

For `CCOc1cccc(-c2cc(C#N)ccc2COCc2cncn2Cc2ccc(Cl)cc2)c1`, the negative-log IC50 (pIC50) came to 8.85.

In the case of `N#Cc1ccc(COCc2cncn2Cc2ccc(C#N)nc2)c(-c2cccc(Cl)c2)c1`, the negative-log IC50 (pIC50) is on record as 8.52.

In the case of `N#Cc1ccc(Cn2cncc2COCc2ccc(C#N)c(-c3cccc4ccccc34)c2)cc1`, the pIC50 was determined as 8.32.

In turn, `N#Cc1ccc(Cn2cncc2COc2ccc(Cl)cc2-c2cccc(Cl)c2)cc1` had a pIC50 of 8.4.

`N#Cc1ccc(Cn2cncc2COCc2ccc(C#N)cc2-c2ccc(OC(F)(F)F)cc2)cc1` came in with a pIC50 of 9.19.

The compound `Cn1c(=O)cc(-c2cccc(Cl)c2)c2cc(C(=O)c3cncn3Cc3ccc(C#N)cc3)ccc21` returned a pIC50 of 7.54.

Compound `N#Cc1ccc(COCc2cncn2Cc2ccc(Cl)cc2)c(-c2ccc3c(c2)OCO3)c1` had a pIC50 of 8.08.

As to `N#Cc1ccc(Cn2cncc2COCc2ccc(Cl)cc2-c2cccc(Cl)c2)cc1`, the pIC50 worked out at 9.21.

As to `CCOc1cccc(-c2cc(C#N)ccc2COCc2cncn2Cc2ccc(C#N)nc2)c1`, the pIC50 was determined as 9.24.

With `N#Cc1ccc(Cn2cncc2COCc2ccc(C#N)cc2-c2ccc(Cl)c(Cl)c2)cc1`, the negative-log IC50 (pIC50) is given as 9.43.

The compound `Cn1c(=O)cc(-c2cccc(Cl)c2)c2cc(C(O)c3cncn3Cc3ccc(C#N)cc3)ccc21` (centres undefined) showed a negative logarithm of the IC50 (pIC50) of 7.33.

`COc1ccc(-c2cc(C#N)ccc2COCc2cncn2Cc2ccc(C#N)cc2)cn1`: the negative-log IC50 (pIC50) was determined as 8.12.

`N#Cc1ccc(Cn2cncc2COCc2cnc(C#N)cc2-c2cccc(Cl)c2)cc1` registered a negative-log IC50 (pIC50) of 8.37.

In turn, `N#Cc1ccc(Cn2cncc2COc2ccc(C#N)c(-c3cccc4ccccc34)c2)cc1` yielded a negative-log IC50 (pIC50) of 9.42.

Consider `N#Cc1ccc(Cn2cncc2COCc2ccc(C#N)cc2-c2cccc3c2OCO3)cc1`, for which the pIC50 is 9.09.

On to `Cc1ccc(-c2cc(C#N)ccc2COCc2cncn2Cc2ccc(C#N)cc2)cc1C`, for which the negative-log IC50 (pIC50) came out at 9.22.

For the compound `N#Cc1ccc(Cn2cncc2COCc2ccc(C#N)cc2-c2ccc(C(F)(F)F)cc2)cc1`, the pIC50 worked out at 8.37.

In turn, `N#Cc1ccc(Cn2cncc2COCc2ccc(C#N)cc2-c2ccc3c(c2)OCO3)nc1` had a pIC50 of 8.33.

Turning to `Cn1c(=O)cc(-c2cccc(Cl)c2)c2cc(C(N)c3cncn3Cc3ccc(C#N)cc3)ccc21` (centres undefined), the pIC50 came to 8.42.

In turn, `COc1cccc(-c2cc(C#N)ccc2COCc2cncn2Cc2ccc(C#N)cn2)c1` returned a pIC50 of 8.36.

In turn, `N#Cc1ccc(COCc2cncn2Cc2ccc(C#N)nc2)c(-c2ccc3c(c2)OCO3)c1` returned a negative-log IC50 (pIC50) of 8.52.

For the compound `N#Cc1cn(Cc2cncn2Cc2ccc3c(c2)OCO3)cc1-c1cccc2ccccc12`, the negative logarithm of the IC50 (pIC50) is given as 8.21.

On to `CCOc1ccc(-c2cc(C#N)ccc2COCc2cncn2Cc2ccc(C#N)cc2)cc1`, for which the negative-log IC50 (pIC50) is recorded as 8.9.

Regarding `CS(=O)(=O)c1ccc(Cn2cncc2COCc2ccc(C#N)cc2-c2cccc(Cl)c2)cc1`, the pIC50 stood at 7.02.

On to `N#Cc1ccc(Cn2cncc2COCc2ccc(C#N)cc2-c2cccc(Cl)c2)cc1`, for which the negative-log IC50 (pIC50) was 9.43.

In the case of `N#Cc1ccc(Cn2cncc2CNCc2ccc(C#N)c(-c3cccc4ccccc34)c2)cc1`, the pIC50 turned out to be 8.19.

`N#Cc1ccc(OCc2cncn2Cc2ccc(C#N)c(-c3cccc4ccccc34)c2)nc1` displayed a pIC50 of 9.05.

In the case of `CC(=O)c1ccc(-c2cc(C#N)ccc2COCc2cncn2Cc2ccc(C#N)cc2)cc1`, the pIC50 worked out at 8.89.

For the compound `Cn1c(=O)cc(-c2cccc(Cl)c2)c2cc(COCc3cncn3Cc3ccc(C#N)cc3)ccc21`, the negative-log IC50 (pIC50) is given as 7.05.

For `N#Cc1ccc(OCc2cncn2Cc2ccc(C#N)c(-c3cccc4ccccc34)c2)cc1`, the negative-log IC50 (pIC50) is 9.49.

With `N#Cc1ccc(Cn2cncc2COCc2ccc(C#N)cc2-c2cccc(OC(F)(F)F)c2)cc1`, the pIC50 turned out to be 9.31.

For `N#Cc1ccc(Cn2cncc2COCc2ccc(C#N)cc2-c2cccc3ccccc23)cc1`, the negative-log IC50 (pIC50) came out at 8.89.

`COc1cccc(-c2cc(C#N)ccc2COCc2cncn2Cc2ccc(C#N)nc2)c1`: the negative logarithm of the IC50 (pIC50) is listed as 8.82.

Regarding `CC(=O)Nc1cccc(-c2cc(C#N)ccc2COCc2cncn2Cc2ccc(C#N)cc2)c1`, the negative-log IC50 (pIC50) is 7.89.

In turn, `Cn1c(=O)cc(-c2cccc(Cl)c2)c2cc(C(NC=O)c3cncn3Cc3ccc(C#N)cc3)ccc21` (centres undefined) registered a pIC50 of 8.68.

On to `CC(C)(C)c1ccc(-c2cc(C#N)ccc2COCc2cncn2Cc2ccc(C#N)cc2)cc1`, for which the pIC50 amounted to 9.36.

`N#Cc1ccc(Cn2cncc2Cn2ccc3c(C#N)c(-c4cccc5ccccc45)ccc32)cc1` had a pIC50 of 9.82.

In the case of `N#Cc1ccc(COCc2cncn2Cc2ccc(C#N)cc2-c2cccc(Cl)c2)c(-c2cccc(Cl)c2)c1`, the pIC50 came out at 8.

`N#Cc1ccc(Cn2cncc2Cn2cc(C#N)c(-c3cccc4ccccc34)c2)cc1` displayed a pIC50 of 9.24.

Turning to `N#Cc1ccc(Cn2cncc2COCc2ccc(C#N)cc2-c2ccc3ccccc3c2)cc1`, the negative-log IC50 (pIC50) came out at 9.04.

`N#Cc1ccc(COCc2cncn2Cc2ccc(C#N)cc2-c2cccc3ccccc23)cc1`: the pIC50 turned out to be 9.02.

`N#Cc1ccc(Cn2cncc2COCc2ccc(C#N)cc2-c2cccc(Cl)c2)nc1` had a pIC50 of 8.77.
